Consider 19 compounds from patent US10519134B2, “Pyrazole compounds and methods of making and using same” (Lundbeck La Jolla Research Center, Inc., priority 2015, dated 2019).

Usually IC50 stands for the concentration that gives 50% inhibition.

Some results are limits rather than exact numbers.

Test [1] concerns the target T1, MAGL (Mus musculus, UniProt O35678).
T1 construct: Proteomes (mouse brain membrane fraction or cell lysates); from tissue; host or cells: mouse brain membrane fraction (or cell lysates)
T1 sequence (O35678 1-303): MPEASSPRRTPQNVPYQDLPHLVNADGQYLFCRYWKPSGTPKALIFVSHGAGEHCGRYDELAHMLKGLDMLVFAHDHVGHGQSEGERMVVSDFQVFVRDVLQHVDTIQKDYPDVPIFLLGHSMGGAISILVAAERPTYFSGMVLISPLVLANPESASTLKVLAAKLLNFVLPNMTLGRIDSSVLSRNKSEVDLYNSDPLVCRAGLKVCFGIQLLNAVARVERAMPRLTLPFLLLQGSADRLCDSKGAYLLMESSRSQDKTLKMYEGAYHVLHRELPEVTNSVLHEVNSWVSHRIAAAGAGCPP
Kind of test: In vitro competitive activity-based protein profiling (mouse), MAGL gel band. The format is biochemical. As to conditions: for IC50: mouse; for inhibition at 1 µM: read-out: MAGL % inh. 1 μM. The method, boiled down:
(§1)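 Mouse brain membrane proteome or cell lysate (1.0 mg/mL total protein) was preincubated with varying inhibitor concentrations for 30 min at 37 °C, then labelled for 30 min at 37 °C with FP-Rh or HT-01 (50 μM stock in DMSO). Activity was read as fluorescent band intensity after SDS-PAGE.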

The target of test [2] is T2, FAAH (Mus musculus, UniProt O08914).
T2 construct: Proteomes (mouse brain membrane fraction or cell lysates); from tissue; host or cells: mouse brain membrane fraction (or cell lysates)
T2 sequence (O08914 1-579): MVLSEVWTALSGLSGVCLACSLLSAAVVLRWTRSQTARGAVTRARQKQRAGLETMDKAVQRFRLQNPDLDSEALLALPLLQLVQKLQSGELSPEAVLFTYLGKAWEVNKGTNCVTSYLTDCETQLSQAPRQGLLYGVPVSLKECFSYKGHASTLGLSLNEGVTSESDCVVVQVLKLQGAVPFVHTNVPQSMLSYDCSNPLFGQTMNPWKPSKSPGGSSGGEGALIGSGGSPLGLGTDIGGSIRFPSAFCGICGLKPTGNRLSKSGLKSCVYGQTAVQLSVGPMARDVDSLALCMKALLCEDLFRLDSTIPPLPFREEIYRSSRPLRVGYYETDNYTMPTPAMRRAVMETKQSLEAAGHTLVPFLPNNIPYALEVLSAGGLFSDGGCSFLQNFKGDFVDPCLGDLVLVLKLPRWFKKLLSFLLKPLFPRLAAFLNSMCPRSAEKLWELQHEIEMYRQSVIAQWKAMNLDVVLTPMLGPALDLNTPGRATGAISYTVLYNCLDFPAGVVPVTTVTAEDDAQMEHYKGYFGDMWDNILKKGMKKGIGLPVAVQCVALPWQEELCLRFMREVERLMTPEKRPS
Nature of the test: In vitro competitive activity-based protein profiling (mouse), FAAH gel band. It counts as biochemical. As to conditions: for IC50: mouse; for inhibition at 1 µM: read-out: FAAH % inh. 1 μM. In a few lines:
as §1

Test [3] deals with T1, MAGL. Nature of the test: Mouse brain proteomes from inhibitor treated mice (oral gavage, sacrificed 4 h after administration). It counts as in vivo. As to conditions: read-out: MAGL % inh. 5 mg/kg. As to the method:
Compounds are tested to assess their MAGL and other serine hydrolase activity using the following in vitro and in vivo assays.
Preparation of Mouse Brain Proteomes from Inhibitor Treated Mice.
Inhibitors were administered to wild-type C57Bl/6J by oral gavage in a vehicle of polyethylene glycol. Each animal was sacrificed 4 h following administration and brain proteomes were prepared and analyzed according to previously established methods (See Niphakis, M. J., et al. (2011) ACS Chem. Neurosci. and Long, J. Z., et al. Nat. Chem. Biol. 5:37-44)

As for `CC(=O)Nc1ccn(C(=O)N2CCN(Cc3ccc(C(F)(F)F)cc3N3CCCC3)CC2)n1` [Example 1, N-(1-(4-(2-(pyrrolidin-1-yl)-4-(trifluoromethyl)benzyl)piperazine-1-carbonyl)-1H-pyrazol-3-yl)acetamide], in test [1], the IC50 was at most 100 nM and the inhibition at 1 µM was at least 75%. In test [2], the half-maximal inhibitory concentration (IC50) fell in the range of 1000 to 10000 nM and the inhibition at 1 µM lay within 0 to 25%. For the same compound, the inhibition at 5 mg/kg in test [3] is at least 75%.
For the compound `CC(=O)Nc1ccn(C(=O)N2CCN(Cc3ccc(C(F)(F)F)cc3N3CCOCC3)CC2)n1` [Example 3, N-(1-(4-(2-morpholino-4-(trifluoromethyl)benzyl)piperazine-1-carbonyl)-1H-pyrazol-3-yl)acetamide], in test [1], the concentration for half-maximal inhibition (IC50) is at most 100 nM and the inhibition at 1 µM was at least 75%. In test [2], the 50% inhibitory concentration (IC50) is 1000 to 10000 nM and the inhibition at 1 µM fell in the range of 0 to 25%. Also, in test [3], the inhibition at 5 mg/kg lay within 50 to 75%.
The like results for `CC(=O)Nc1ccn(C(=O)N2CCN(Cc3ccc(C(F)(F)F)cc3N3CCC(F)CC3)CC2)n1` [Example 4, N-(1-(4-(2-(4-fluoropiperidin-1-yl)-4-(trifluoromethyl)benzyl)piperazine-1-carbonyl)-1H-pyrazol-3-yl)acetamide] were, in that order, at most 100 nM, at least 75%, 1000 to 10000 nM, 0 to 25% and at least 75%.
The like results for `CC(=O)Nc1ccn(C(=O)N2CCN(Cc3ccc(Cl)cc3N3CCCC3)CC2)n1` [Example 5, N-(1-(4-(4-chloro-2-(pyrrolidin-1-yl)benzyl)piperazine-1-carbonyl)-1H-pyrazol-3-yl)acetamide] were, in that order, at most 100 nM, at least 75%, 1000 to 10000 nM, 0 to 25% and at least 75%.
The corresponding values for `CC(=O)Nc1ccn(C(=O)N2CCN(Cc3ccc(Cl)cc3N3CCOCC3)CC2)n1` [Example 6, N-(1-(4-(4-chloro-2-morpholinobenzyl)piperazine-1-carbonyl)-1H-pyrazol-3-yl)acetamide] are at most 100 nM, at least 75%, 1000 to 10000 nM, 0 to 25% and 25 to 50%.
Consider `CC(=O)Nc1ccn(C(=O)N2CCC3(CCCN3Cc3ccc4nc(C)oc4c3)CC2)n1` [Example 265, N-(1-(1-((2-methylbenzo[d]oxazol-6-yl)methyl)-1,8-diazaspiro[4.5]decane-8-carbonyl)-1H-pyrazol-3-yl)acetamide], for which, in test [1], the IC50 is 100 to 1000 nM and the inhibition at 1 µM is at least 75%. Besides, in test [2], the half-inhibitory concentration (IC50) lay in the range of 1000 to 10000 nM and the inhibition at 1 µM was in the range of 0 to 25%.
For the compound `CS(=O)(=O)Nc1ccn(C(=O)N2CCN(Cc3ccc(Cl)c(C4CCCC4)c3)CC2)n1` [Example 272, N-(1-(4-(4-chloro-3-cyclopentylbenzyl)piperazine-1-carbonyl)-1H-pyrazol-3-yl) methanesulfonamide], the inhibition at 1 µM in test [1] was at least 75%; in test [2], 0 to 25%.
The corresponding values for `CS(=O)(=O)Nc1ccn(C(=O)N2CCN(Cc3cccc(C(F)(F)F)c3N3CCC(F)CC3)CC2)n1` [Example 273, N-(1-(4-(2-(4-fluoropiperidin-1-yl)-3-(trifluoromethyl)benzyl)piperazine-1-carbonyl)-1H-pyrazol-3-yl) methanesulfonamide] are at least 75% and 0 to 25%.
The corresponding values for `CC(=O)Nc1ccn(C(=O)N2CCN(Cc3ccc(C(F)(F)F)cc3N3CCC(C(N)=O)CC3)CC2)n1` [Example 274, 1-(2-((4-(3-acetamido-1H-pyrazole-1-carbonyl)piperazin-1-yl)methyl)-5-(trifluoromethyl)phenyl)piperidine-4-carboxamide] are at least 75% and 0 to 25%.
The like results for `CC(=O)Nc1ccn(C(=O)N2CCN(Cc3ccc(C(F)(F)F)cc3N3CCC(NC(C)=O)CC3)CC2)n1` [Example 275, N-(1-(2-((4-(3-acetamido-1H-pyrazole-1-carbonyl)piperazin-1-yl)methyl)-5-(trifluoromethyl)phenyl)piperidin-4-yl)acetamide] were, in that order, at least 75% and 0 to 25%.
In the case of `CC(=O)Nc1ccn(C(=O)N2CCN(Cc3ccc(C(F)(F)F)cc3N3CCC(O)CC3)CC2)n1` [Example 276, N-(1-(4-(2-(4-hydroxypiperidin-1-yl)-4-(trifluoromethyl)benzyl)piperazine-1-carbonyl)-1H-pyrazol-3-yl)acetamide], the values for the inhibition at 1 µM in test [1] and in test [2] were at least 75% and 0 to 25%, respectively.
Regarding `CC(=O)Nc1ccn(C(=O)N2CCN(Cc3ccc(C(F)(F)F)cc3N3CCN(CC(=O)O)CC3)CC2)n1` [Example 277, 2-(4-(2-((4-(3-acetamido-1H-pyrazole-1-carbonyl)piperazin-1-yl)methyl)-5-(trifluoromethyl)phenyl)piperazin-1-yl)acetic acid], the results for the inhibition at 1 µM in test [1] and in test [2] were at least 75% and 0 to 25%, respectively.
The corresponding values for `CS(=O)(=O)Nc1ccn(C(=O)N2CCN(Cc3ccc(C(F)(F)F)c(N4CCN5CCC[C@@H]5C4)c3)CC2)n1` [Example 278, (R)-N-(1-(4-(3-(hexahydropyrrolo[1,2-a]pyrazin-2(1H)-yl)-4-(trifluoromethyl)benzyl)piperazine-1-carbonyl)-1H-pyrazol-3-yl) methanesulfonamide] are at least 75% and 0 to 25%.
In the case of `CC(=O)NC1CCN(c2cc(CN3CCN(C(=O)n4ccc(NS(C)(=O)=O)n4)CC3)ccc2C(F)(F)F)CC1` [Example 279, N-(1-(5-((4-(3-(methylsulfonamido)-1H-pyrazole-1-carbonyl)piperazin-1-yl)methyl)-2-(trifluoromethyl)phenyl)piperidin-4-yl)acetamide], the inhibition at 1 µM in test [1] is at least 75%; in test [2], 0 to 25%.
The like results for `CC(C)(O)C1CCN(c2cc(CN3CCN(C(=O)n4ccc(NS(C)(=O)=O)n4)CC3)ccc2C(F)(F)F)CC1` [Example 280, N-(1-(4-(3-(4-(2-hydroxypropan-2-yl)piperidin-1-yl)-4-(trifluoromethyl)benzyl)piperazine-1-carbonyl)-1H-pyrazol-3-yl) methanesulfonamide] were, in that order, at least 75% and 0 to 25%.
On to `CS(=O)(=O)Nc1ccn(C(=O)N2CCN(Cc3ccc(C(F)(F)F)c(N4CCN(CC(=O)O)CC4)c3)CC2)n1` [Example 281, 2-(4-(5-((4-(3-(methylsulfonamido)-1H-pyrazole-1-carbonyl)piperazin-1-yl)methyl)-2-(trifluoromethyl)phenyl)piperazin-1-yl)acetic acid], for which the inhibition at 1 µM in test [1] and in test [2] was 0 to 25% in each case.
On to `CS(=O)(=O)Nc1ccn(C(=O)N2CCN(Cc3ccc(Cl)c(N4CCN(S(C)(=O)=O)CC4)c3)CC2)n1` [Example 282, N-(1-(4-(4-chloro-3-(4-(methylsulfonyl)piperazin-1-yl)benzyl)piperazine-1-carbonyl)-1H-pyrazol-3-yl) methanesulfonamide], for which the inhibition at 1 µM is at least 75% in test [1] and 0 to 25% in test [2].
Take `CS(=O)(=O)Nc1ccn(C(=O)N2CCN(Cc3ccc(Cl)c(-c4cnccn4)c3)CC2)n1` [Example 283, N-(1-(4-(4-chloro-3-(pyrazin-2-yl)benzyl)piperazine-1-carbonyl)-1H-pyrazol-3-yl) methanesulfonamide]: the inhibition at 1 µM in test [1] is at least 75%; in test [2], 0 to 25%.
Consider `CC(=O)N1CCN(c2cc(CN3CCN(C(=O)n4ccc(NS(C)(=O)=O)n4)CC3)ccc2Cl)CC1` [Example 284, N-(1-(4-(3-(4-acetylpiperazin-1-yl)-4-chlorobenzyl)piperazine-1-carbonyl)-1H-pyrazol-3-yl) methanesulfonamide], for which, in test [1], the IC50 was 100 to 1000 nM and the inhibition at 1 µM is at least 75%. Further, in test [2], the half-inhibitory concentration (IC50) was 1000 to 10000 nM and the inhibition at 1 µM is 0 to 25%.
